Reference: ChEMBL document CHEMBL1201862, “PubChem BioAssay data set” (2004)
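Interpolation was linear, between the two tested concentrations surrounding the appropriate level; five concentrations were tested over 48 hours in 96-well plates. The concentration for 50% growth inhibition is given as GI50.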 The source made the active and inactive calls. Rule as the data show it: active = GI50 up to about 1.1 µM and inactive = higher.

Columns and labels:
Experiment in all cases: growth of human tumour cells (NCI), 48 h
[1] = system: SNB-19
[2] = system: HL-60
[3] = system: UACC-62
[4] = system: MDA-MB-435
[5] = system: SN12C
[6] = system: NCI-H226
[7] = system: HCT-116
[8] = system: SK-MEL-28
[9] = system: NCI-H23
[10] = system: PC-3
[11] = system: MCF7
[12] = system: RXF 393
[13] = system: DU-145
[14] = system: T47D
[15] = system: EKVX
[16] = system: CAKI-1
[17] = system: NCI-H460
[18] = system: SF-539
[19] = system: HCC 2998

Measured: GI50

N#Cc1ccc(/C=N/NC(=O)CSCC(=O)N/N=C/c2ccc(C#N)cc2)cc1
inactive: [1] > 100 µM | [2] > 100 µM | [3] > 100 µM | [4] > 100 µM | [5] > 100 µM | [6] > 100 µM | [7] > 100 µM | [8] > 100 µM | [9] > 100 µM | [10] > 100 µM | [11] > 100 µM | [12] > 100 µM | [13] > 100 µM | [14] > 100 µM | [15] > 100 µM | [16] > 100 µM | [17] > 100 µM | [18] > 100 µM | [19] > 100 µM

Cc1ccc(NC(=O)CC(=O)N2N=C(N(C)c3ccccc3)CC2c2ccccc2)cc1 (centres undefined)
inactive: [1] > 100 µM | [2] > 100 µM | [3] > 100 µM | [4] > 100 µM | [5] > 100 µM | [6] > 100 µM | [7] > 100 µM | [8] > 100 µM | [9] > 100 µM | [10] > 100 µM | [11] > 100 µM | [12] > 100 µM | [13] > 100 µM | [14] > 100 µM | [15] > 100 µM | [16] > 100 µM | [17] > 100 µM | [18] > 100 µM | [19] > 100 µM

c1nnc(NCNc2nncs2)s1
inactive: [1] > 100 µM | [2] 46.3 µM | [3] 93.3 µM | [4] 28.6 µM | [5] 30.9 µM | [6] > 100 µM | [7] 33.7 µM | [8] 64.4 µM | [9] 47.9 µM | [10] 57.1 µM | [11] 38.5 µM | [12] 29 µM | [13] 16 µM | [14] 90.4 µM | [15] 23.3 µM | [16] 9.48 µM | [17] 6.18 µM | [18] 31 µM | [19] 19.2 µM

N#Cc1sc2c(c1OC(=O)c1ccc(C(F)(F)F)cc1)c(=O)n(-c1ccccc1)c(=S)n2-c1ccccc1
inactive: [1] 34 µM | [2] 21 µM | [3] 22.4 µM | [4] 26.5 µM | [5] 29.5 µM | [6] 29.8 µM | [7] 17.8 µM | [8] 33.8 µM | [9] 29.6 µM | [10] 26.7 µM | [11] 30.1 µM | [12] 14.8 µM | [13] 38.5 µM | [14] 34.5 µM | [15] 24.9 µM | [16] 32.4 µM | [17] 30.3 µM | [18] 25.2 µM | [19] 34.4 µM

CC(Br)CN1CCOCC1 (centres undefined)
inactive: [1] > 100 µM | [2] 10.5 µM | [3] > 100 µM | [4] > 100 µM | [5] > 100 µM | [6] > 100 µM | [7] > 100 µM | [8] > 100 µM | [9] > 100 µM | [10] > 100 µM | [11] > 100 µM | [12] > 100 µM | [13] > 100 µM | [14] > 100 µM | [15] > 100 µM | [16] > 100 µM | [17] > 100 µM | [18] > 100 µM | [19] > 100 µM

Cc1cc(O)c2c(c1O)C(=O)c1cccc(O)c1C2=O [ISLANDICIN]
inactive: [1] > 100 µM | [2] 60.8 µM | [3] > 100 µM | [4] > 100 µM | [5] > 100 µM | [6] > 100 µM | [7] > 100 µM | [8] > 100 µM | [9] > 100 µM | [10] > 100 µM | [11] > 100 µM | [12] > 100 µM | [13] > 100 µM | [14] > 100 µM | [15] > 100 µM | [16] > 100 µM | [17] > 100 µM | [18] > 100 µM | [19] > 100 µM
